{
  "source": "patent US20070213402A1",
  "about": "“Compounds which interact with the thyroid hormone receptor for the treatment of fibrotic disease” (priority 1998, published 2007)",
  "key": {"glucocorticoid receptor": {"target": "T1, glucocorticoid receptor (Homo sapiens, UniProt P04150)", "T1 construct": "expressed in transfected cells; host or cells: CV1 (transformed African Green Monkey kidney cell line)", "T1 sequence (P04150 1-777)": "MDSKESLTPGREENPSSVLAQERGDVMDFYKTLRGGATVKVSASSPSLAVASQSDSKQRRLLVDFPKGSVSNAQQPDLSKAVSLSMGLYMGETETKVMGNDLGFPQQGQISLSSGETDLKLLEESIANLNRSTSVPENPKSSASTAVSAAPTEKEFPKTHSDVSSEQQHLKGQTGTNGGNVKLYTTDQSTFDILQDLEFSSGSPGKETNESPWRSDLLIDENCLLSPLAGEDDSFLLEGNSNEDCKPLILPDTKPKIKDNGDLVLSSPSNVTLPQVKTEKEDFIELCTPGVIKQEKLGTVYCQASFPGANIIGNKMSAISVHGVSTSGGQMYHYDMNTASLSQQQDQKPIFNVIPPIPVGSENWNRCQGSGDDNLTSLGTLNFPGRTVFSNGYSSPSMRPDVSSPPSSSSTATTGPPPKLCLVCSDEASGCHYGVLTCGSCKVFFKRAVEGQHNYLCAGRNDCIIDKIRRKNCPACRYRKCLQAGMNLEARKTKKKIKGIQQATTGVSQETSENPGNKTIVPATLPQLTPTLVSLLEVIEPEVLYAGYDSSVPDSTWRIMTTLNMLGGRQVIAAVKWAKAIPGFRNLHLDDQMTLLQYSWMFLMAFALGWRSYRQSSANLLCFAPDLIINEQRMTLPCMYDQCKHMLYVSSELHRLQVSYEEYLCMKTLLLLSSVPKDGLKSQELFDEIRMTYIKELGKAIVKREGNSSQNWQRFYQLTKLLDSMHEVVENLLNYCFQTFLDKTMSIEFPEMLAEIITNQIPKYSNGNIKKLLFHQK", "assay": "Experiment 2: PGL3MMTV-luciferase transactivation in CV1 cells with glucocorticoid receptor (GR1)", "assay_type": "cell-based", "conditions": "for % control (GR1): Blank = 100", "source_text": "(§1) Two plasmid constructs were introduced by standard calcium phosphate precipitation of DNA followed by glycerol shock (Ausubel F M, Brent R, Kingston D D, Moore J G et al Current protocols in molecular biology 1994 Greene Publishing Associates/Wiley-Interscience, New York, N.Y.) using a transformed African Green Monkey kidney cell line (CV1) (Schneikert J, Peterziel H, Defossez P-A, Klocker H, de Launoit Y and Cato A C B Androgen receptor-Ets protein interaction is a novel mechanism for steroid hormone-mediated down-modulation of matrix metalloproteinase expression, Journal of Biological Chemistry. Vol 271(39) (pp 23907-23913), 1996).\nThis experiment was intended to investigate the activation of androgen and corticosteroid receptors by compound I.\nCPII was compound II above, clobuzarit, which was used at 10^−7M."}, "c-jun": {"test_system": "c-jun", "assay": "Experiment 5: immunoblot of phosphorylated (serine 73) c-jun in rheumatoid fibroblasts", "assay_type": "cell-based, human", "conditions": "36 hours, 10 ng/ml TPA plus 5×10^-7M substance, compared to TPA alone (lane 1)", "protocol": "Rheumatoid fibroblasts were cultured from synovium obtained from the knee joint of a patient with rheumatoid arthritis. Cells were cultured in monolayer with DMEM tissue culture medium (Gibco) with the inclusion of 5% v/v charcoal stripped serum in 75 cm^2 flasks. The cells were treated for 36 hours with the addition of 10 ng/ml TPA (phorbol ester) plus 5×10^−7M thyroid hormone, Compound II or Compound III. TPA and drugs were added at time zero and at 30 hours, the TPA addition ensured phosphorylation of c-jun.\nAfter 36 hours, cells were lysed in phosphate buffered saline (PBS) containing protease inhibitors and 0.1% Triton-X-100, and then boiled for 5 minutes in non-reducing gel loading buffer. Samples of cell lysate corresponding to equal cell number were loaded onto a 12.5% SDS polyacrylamide gel, and electrophoresis using a Bio-Rad™, (Bio-Rad Laboratories, California USA) Mini Protean II cell was performed at approximately 100V for one hour.\nTransfer of proteins to nitrocellulose membrane was performed using a Bio-Rad Mini Trans-Blot transfer cell.\nImmunoblotting was performed using polyclonal rabbit anti-human phosphorylation specific (set 73) c-jun (cat. No 06659, Upstate Biotechnology), or MMP-1 (cat. No. RDI-MMP1Habr, Research Diagnostics) antibodies diluted 1:1000 in Tris buffered saline+3% fat free milk powder. […]"}, "[1]": {"test_system": "collagenase (MMP-1) promoter", "assay": "Experiment 4.1: collagenase (MMP-1) promoter (-517/+63)-luciferase in MCF-7 cells, endogenous thyroid hormone receptors", "assay_type": "cell-based, human", "conditions": "MCF-7, endogenous thyroid hormone receptors; for % Control: Blank = 100", "protocol": "These experiments were intended to identify the receptor through which compounds I might be acting to block collagenase promoter activity.\nTransfection procedure hereinbefore described with CV1 cells was repeated using MCF-7 mammary breast cancer cells derived from pleural effusion from a breast cancer patient. Additionally, each experiment included transfection of a plasmid (at 8 ug per 5×10^5 cells) containing the −517/+63 section of the collagenase (MMP-1) promoter linked to the luciferase gene. TPA was used as above to stimulate activity of the collagenase promoter resulting in luciferase production. Compound II or 3,3,5-triiodo-L-thyronine (T3) was included (both at 10^−8M), the latter being a known ligand for the thyroid hormone receptor.\nExperiment 4.1. As MCF-7 cells express endogenous thyroid hormone receptors, only the collagenase promoter plasmid (at 8 ug per 5×10^5 cells) was transfected into the MCF-7 cells."}, "collagenase I promoter": {"test_system": "collagenase I promoter", "assay": "Experiment 1: collagenase I promoter (-73/+63)-luciferase in CV1 cells transfected with pSG5ARF (androgen receptor)", "assay_type": "cell-based, African Green Monkey", "conditions": "for % control (AR): Blank = 100", "source_text": "as §1\nAccordingly, the following two plasmids were included into CV1 cells described above — • (a) Either of GR1 or pSG5ARF containing glucocorticoid or androgen receptor (AR) respectively, both at 2 ug per 5×10^5 cells, driven by the Rous sarcoma virus promoter, and • (b) a plasmid containing the −73/+63 portion of the collagenase I promoter linked to luciferase gene at 8 ug per 5×10^5 cells.\nCPII was compound II above, clobuzarit."}, "[2]": {"conditions": "CPII 10^-7M together with Dex 10^-7M"}, "[3]": {"conditions": "substance 10^-8M added with TPA"}, "[4]": {"conditions": "substance added with TPA 75 ng/ml, DHT 10^-7M"}},
  "data": [
    {"smiles": "CC(C)(OCc1ccc(-c2ccc(Cl)cc2)cc1)C(=O)O", "note": "[Compound II, 1-[4-(4-chlorophenyl)benzyloxy]-1-methylpropionic acid]", "values": [
      {"measurement": "activation of glucocorticoid receptor-driven transcription, in words", "setting": "glucocorticoid receptor; 10^-7M, compared with Dex", "value": "negligible activity"},
      {"measurement": "Raw counts (GR1)", "setting": "glucocorticoid receptor; [2]", "value": 748249, "unit": "counts"},
      {"measurement": "% control (GR1)", "setting": "glucocorticoid receptor; [2]", "value": 20965, "unit": "%"},
      {"measurement": "Raw counts (GR1)", "setting": "glucocorticoid receptor; substance alone at 10^-7M", "value": 3272, "unit": "counts"},
      {"measurement": "% control (GR1)", "setting": "glucocorticoid receptor; substance alone at 10^-7M", "value": 92, "unit": "%"},
      {"measurement": "amount of phosphorylation of c-jun (serine 73), band intensity", "setting": "c-jun", "value": "lower intensity"},
      {"measurement": "effect on TPA stimulation of luciferase production, in words", "setting": "[1]", "value": "able further to enhance TPA stimulation of luciferase production"},
      {"measurement": "Raw Counts", "setting": "[1]; [3]", "value": 352376, "unit": "counts"},
      {"measurement": "% Control", "setting": "[1]; [3]", "value": 2802.2, "unit": "%"},
      {"measurement": "% Control", "setting": "[1]; substance added alone", "value": 47.9, "unit": "%"},
      {"measurement": "Raw Counts", "setting": "[1]; substance added alone, CPII 10^-8M", "value": 6029, "unit": "counts"},
      {"measurement": "% control (AR)", "setting": "collagenase I promoter; substance added alone", "value": 51, "unit": "%"},
      {"measurement": "Raw counts (AR)", "setting": "collagenase I promoter; substance added alone, TPA 75 ng/ml", "value": 1374, "unit": "counts"},
      {"measurement": "Raw counts (AR)", "setting": "collagenase I promoter; [4]", "value": 5986, "unit": "counts"},
      {"measurement": "% control (AR)", "setting": "collagenase I promoter; [4]", "value": 224, "unit": "%"},
      {"measurement": "collagenase I activation, in words (AR)", "setting": "collagenase I promoter; TPA-stimulated, androgen receptor", "value": "able to down regulate collagenase I activation"}
    ]}
  ]
}
